Experimental data taken from patent US20050238727A1, “Coadministration of radiation, efaproxiral sodium, and supplemental oxygen for the treatment of cancer” (priority 2004, published 2005).

Tests used:
Format in all cases: in vivo, human
[1] = Quality of life: Karnofsky Performance Status (KPS); details: for patients with stable or improving KPS scores: all randomized patients, N = 271
Procedure: (§1) Quality of life was determined by means of the Spitzer Questionnaire (SQ) and Kamofsky Performance Status (KPS) assessment. The tests were performed at baseline, at WBRT day 10, and at all routine follow-up visits. A sustained drop in the KPS score to less than 60 was defined as a significant drop. The 5 questions comprising the Spitzer Questionnaire were weighted evenly. For each evaluation with at least 3 out of 5 questions answered, an average score was computed for each patient. Questionnaires with fewer than 3 questions answered were treated as missing data. The protocol specified a sustained drop in the Spitzer Questionnaire score of 2 points constituted a significant drop.

[2] = Treatment-emergent adverse events in the controlled study
Procedure: Patients with brain metastases were administered efaproxiral sodium in a total dose of 0-100 mg/kg per day based on the dosing guidelines detailed above. In general, efaproxiral sodium is administered by intravenous infusion through a central venous access device over 30 minutes at a dose of 75 or 100 mg/kg daily with concurrent supplemental oxygen. Oxygen must be administered at 4 L/min via nasal cannula or facemask beginning 5 minutes prior to initiation of infusion, during infusion and WBRT, and for at least 15 minutes after completion of daily WBRT. Efaproxiral sodium is administered every day of a fractionated course of WBRT. Except when contraindicated, WBRT must be administered within 30 minutes of the end of the efaproxiral sodium infusion.
The patients were given the drug in one dose. Efaproxiral sodium was administered via central venous access with flow rate controlled by volumetric pump over a 30-45 minute interval with end-infusion no longer than 30 minutes prior to each radiation dose of a 10-day course of WBRT. Efaproxiral sodium was formulated as a sterile solution for injection and was supplied in single-use glass bottles containing 10 g efaproxiral sodium in 500 mL of 0.225% NaCl at a concentration of 20 mg/mL. Efaproxiral sodium was administered during the 10-day course of WBRT, for a maximum of 10 doses. A control group received radiation and supplemental oxygen only.
The majority of treatment-emergent adverse events were Grade 1 or 2 in severity, resolved spontaneously or within the duration of the study, and responded well to concomitant treatment with antiemetics for nausea/vomiting, nonsteroidal anti-inflammatory drugs for headache, supplemental oxygen for hypoxemia. […] Muscle weakness and dyspnea (reported in 3% of patients ) were the most commonly reported Grade 3 adverse events in Control patients and both events were reported as a Grade 4 event in 1 patient each. The most commonly reported Grade 4 adverse event in both treatment and control groups was disease progression (reported in 6% of both groups).

[3] = Resaturation time / supplemental oxygen requirement after efaproxiral sodium plus WBRT; details: majority of doses; patients with brain metastases from breast cancer
Procedure: Depending upon an individual patient's resaturation time (time required to recover to a stable≧90% SpO2 on room air) following efaproxiral sodium plus WBRT, supplemental oxygen use may be required for as little as 30 minutes to more than 4 hours. […] During this period of decreased oxygen saturation, patients require continuous SpO2 monitoring. If the desired SpO2 of≧90% while breathing room air is not achieved, supplemental oxygen is to be continued and increased to a flow of 6-8 L/min, if necessary, until the SpO2 while breathing room air is stabilized at≧90%.

brain metastases [4] = assay: Survival of patients with brain metastases given efaproxiral sodium + WBRT + supplemental oxygen (controlled study RT-009)
Procedure: Patients with brain metastases were administered efaproxiral sodium in a total dose of 0-100 mg/kg per day based on the dosing guidelines detailed above. In general, efaproxiral sodium is administered by intravenous infusion through a central venous access device over 30 minutes at a dose of 75 or 100 mg/kg daily with concurrent supplemental oxygen. Oxygen must be administered at 4 L/min via nasal cannula or facemask beginning 5 minutes prior to initiation of infusion, during infusion and WBRT, and for at least 15 minutes after completion of daily WBRT. Efaproxiral sodium is administered every day of a fractionated course of WBRT. Except when contraindicated, WBRT must be administered within 30 minutes of the end of the efaproxiral sodium infusion. The patients were given the drug in one dose. Efaproxiral sodium was administered via central venous access with flow rate controlled by volumetric pump over a 30-45 minute interval with end-infusion no longer than 30 minutes prior to each radiation dose of a 10-day course of WBRT. Efaproxiral sodium was formulated as a sterile solution for injection and was supplied in single-use glass bottles containing 10 g efaproxiral sodium in 500 mL of 0.225% NaCl at a concentration of 20 mg/mL. Efaproxiral sodium was administered during the 10-day course of WBRT, for a maximum of 10 doses. A control group received radiation and supplemental oxygen only. Supplemental oxygen is administered at about 4 L/min via nasal cannula beginning about 5 minutes prior to initiation of infusion, during infusion and WBRT, and for at least about 15 minutes after completion of daily WBRT. If the desired SpO2 of greater than or equal to 90% while breathing room air is not achieved, supplemental oxygen is to be continued and increased to a flow of 6-8 L/min, if necessary, until the SpO2 while breathing room air is stabilized at greater than or equal to 90%. Plasma and red blood cell (RBC) drug concentration were assayed on 2 days during the course of efaproxiral sodium administration: WBRT day 1 (end-infusion) and on 1 single day between WBRT days 6 and 10 (pre-infusion and end-infusion assays). Regression analysis was used to explore the relationship between trough and peak concentrations and continuous clinical covariates (eg, age, serum albumin, hematocrit, serum creatinine, etc). […] A dose of efaproxiral sodium was considered predicatably therapeutic if it achieved a sufficient, RBC concentration (>483 μg/ml), and corresponded to a predicted p50 shift of 10 mmHg. One measurement of efficacy is the survival in the total patient population. For eligible patients, the observed mean survival time for the control group was 4.37 months as compared to 5.39 months for the efaproxiral sodium treated group.

[5] = Plasma and red blood cell (RBC) drug concentration during efaproxiral sodium administration
Procedure: Plasma and red blood cell (RBC) drug concentration were assayed on 2 days during the course of efaproxiral sodium administration: WBRT day 1 (end-infusion) and on 1 single day between WBRT days 6 and 10 (pre-infusion and end-infusion assays). Regression analysis was used to explore the relationship between trough and peak concentrations and continuous clinical covariates (eg, age, serum albumin, hematocrit, serum creatinine, etc). […] A dose of efaproxiral sodium was considered predicatably therapeutic if it achieved a sufficient, RBC concentration (>483 μg/ml), and corresponded to a predicted p50 shift of 10 mmHg.

[6] = Quality of life: Spitzer Questionnaire (SQ); details: all randomized patients, N = 271
Procedure: as §1

brain metastases [7] = assay: Radiographic response of brain metastases (contrast enhanced MRI or CT, blinded central review)
Text: Radiographic progression is defined by radiographic criteria only, based on a blinded central review. Determination of radiographic tumor progression in the brain was based on contrast enhanced MRI or CT scans taken at screening and compared to follow-up scans taken 1 month after the end of WBRT, 3 months after the end of WBRT, and every 3 months thereafter until death. Maximum bi-dimensional measurements (x=transverse, y=antero-posterior) were used to compute the bi-dimensional product and for determination of response and radiographic progression. Time to radiographic tumor progression in the brain was reported by means of Kaplan-Meier estimates. Gray's test (Gray R. A class of K-sample tests for comparing the cumulative incidence of a competing risk. Annals of Statistics […];16:1141-1154) was used to compare cumulative incidence between treatment and control groups. Potential competing risks for radiographic progression in the brain included death without progression and loss to follow-up. The date of tumor progression is defined as the date of radiographic documentation that any treated lesion in the brain is enlarged by more than 25% in the bi-dimensional product. The reference to “any treated lesion” mans that the lesion was present prior to RT.

Cc1cc(C)cc(NC(=O)Cc2ccc(OC(C)(C)C(=O)O)cc2)c1 [efaproxiral sodium, 2-[4-(((3,5-dimethylanilino)carbonyl)methyl)phenoxy]-2-methylpropionic acid]
patients with stable or improving KPS scores ([1]; 1 month): 119 (44) n (%)
patients with stable or improving KPS scores ([1]; 3 months): 64 (24) n (%)
patients with stable or improving KPS scores ([1]; 6 months): 49 (18) n (%)
patients with stable or improving KPS scores ([1]; 12 months): 19 (7) n (%)
distribution of KPS score categories between treatment groups ([1]; breast primary patients, 6 months and 1 year (p=0.0046 and p=0.0070)): statistically significant difference
severity of the majority of treatment-emergent adverse events ([2]; controlled study): Grade 1 or 2
Grade 4 hypoxemia ([2]; efaproxiral sodium-treated patients): no Grade 4 hypoxemia was reported
Grade 3 hypoxemia, patients reporting ([2]; efaproxiral sodium-treated patients, most commonly reported Grade 3 adverse event): 11%
Grade 4 disease progression, patients reporting ([2]; most commonly reported Grade 4 adverse event, same in control group): 6%
supplemental oxygen required after completion of WBRT [3]: one
MST (median survival time) (brain metastases [4]; All patients, <7 efaproxiral sodium doses): 2.96 (53)
MST (median survival time) (brain metastases [4]; All patients, ≧7 efaproxiral sodium doses, <7 successful (RBC >483 μg/ml)): 4.93 (118)
MST (median survival time) (brain metastases [4]; All patients, ≧7 efaproxiral sodium doses, ≧7 successful (RBC >483 μg/ml), p 0.001 vs Control): 6.90 (100) 0.001
MST (median survival time) (brain metastases [4]; Breast patients, <7 efaproxiral sodium doses): 3.52 (13)
MST (median survival time) (brain metastases [4]; Breast patients, ≧7 efaproxiral sodium doses, <7 successful): 7.33 (22)
MST (median survival time) (brain metastases [4]; Breast patients, ≧7 efaproxiral sodium doses, ≧7 successful, p 0.0002 vs Control): 25.72 (25) 0.0002
MST (median survival time) (brain metastases [4]; NSCLC patients, <7 efaproxiral sodium doses): 2.71 (30)
MST (median survival time) (brain metastases [4]; NSCLC patients, ≧7 efaproxiral sodium doses, <7 successful): 4.73 (65)
MST (median survival time) (brain metastases [4]; NSCLC patients, ≧7 efaproxiral sodium doses, ≧7 successful, p 0.0011 vs Control): 6.83 (53) 0.0011
observed mean survival time (brain metastases [4]; eligible patients, control group 4.37 months): 5.39 months
HR, survival distribution function, treatment versus control (brain metastases [4]; patients with breast as site of primary, p=0.0061): 0.552
drug accumulation ([5]; WBRT week 2 preinfusion concentrations in RBCs): No clinically relevant drug accumulation occurred
predicted p50 shift ([5]; at RBC concentration >483 μg/ml): 10 mmHg
change of concentration in RBCs with dose ([5]; patients dosed at 75 or 100 mg/kg): proportional increase
patients with stable or improving SQ scores ([6]; 1 month): 115 (42) n (%)
patients with stable or improving SQ scores ([6]; 3 months): 62 (23) n (%)
patients with stable or improving SQ scores ([6]; 6 months): 43 (16) n (%)
patients with stable or improving SQ scores ([6]; 12 months): 24 (9) n (%)
estimated increase in radiographic response rate compared to Control (brain metastases [7]; all randomized patients, 95% CI −0.4%-16.3%, p=0.0609): 7.9%
treatment effect for predicting response (logistic multiple regression) (brain metastases [7]; breast primary patients, p=0.0209): statistically significant
